According to ChEMBL document CHEMBL4699579, “A Peptidyl Inhibitor that Blocks Calcineurin-NFAT Interaction and Prevents Acute Lung Injury” (J Med Chem, 2020):
Calls of active or inactive are those of the source. The rule behind the calls is not given here. Positions of bridges follow the written chain, without caps; N, C: chain ends. Non-standard residues stand in square brackets, D forms with d. Residues, ends and D or L forms follow the SMILES beside them. Chains are numbered I, II in the order given. *: point of attachment. 2Nal = N[C@@H](Cc1ccc2ccccc2c1)C(=O)O; Val(3-OH) = CC(C)(O)[C@H](N)C(=O)O; Tle = CC(C)(C)[C@H](N)C(=O)O; X1 = O=C(c1ccnc(Cl)c1Cl)*; AEEA = NCCOCCOCC(=O)O

Key:
[1] = Stability in 25% human serum assessed as compound degradation at 5 uM at 37 degC incubated for 24 hrs by HPLC analysis; type: ADME, cell-free; conditions: serum, 24 h, 5 µM
HeLa = test: Toxicity in human HeLa cells assessed as reduction in cell viability up to 25 uM incubated for 72 hrs by MTT assay; type: cell-based
Macrophage [2] = test: Inhibition of calcineurin-NFATc3 interaction in mouse lung macrophages assessed as reduction in LPS-induced TNFalpha production at 0.1 to 10 uM pre-incubated 4 hrs before LPS stimulation for 8 hrs by ELISA; type: tissue-based; conditions: DISRUPTING AGENT, dose microM 0.1-10, time 12.0 hrs
Macrophage [3] = test: Inhibition of calcineurin-NFATc3 interaction in mouse lung macrophages assessed as reduction in LPS-induced IL6 production at 0.1 to 10 uM pre-incubated 4 hrs before LPS stimulation for 8 hrs by ELISA; type: tissue-based; conditions: DISRUPTING AGENT, dose microM 0.1-10, time 12.0 hrs
Homo sapiens = species: Homo sapiens; test: Inhibition of GST-tagged Calcineurin (unknown origin) assessed as reduction in phosphatase activity at 50 uM incubated for 30 mins using p-nitrophenyl phosphate substrate
Macrophage [4] = test: Inhibition of calcineurin-NFATc3 interaction in mouse lung macrophages assessed as reduction in LPS-induced IL6 production at 1 uM pre-incubated 4 hrs before LPS stimulation for 8 hrs by ELISA relative to 10 uM CsA; type: tissue-based; conditions: time 12.0 hrs
[5] = Stability in simulated gastric fluid at 5 uM incubated for 2 hrs by LC/MS/MS analysis
[6] = Stability in human HCT-116 cells spheroids assessed as compound degradation at 5 uM incubated for 24 hrs by MALDI-TOF-TOF mass spectrometry; type: ADME, cell-based; conditions: hct-116, 24 h
[7] = Stability in mouse liver microsomes assessed as compound degradation at 100 uM after 1 hr in presence of NADPH by LC-MS/MS analysis; type: ADME, Microsome; conditions: read-out: Drug degradation
[8] = Drug concentration in BALB/c mouse muscle at 5 mg/kg, iv after 8 hrs by LC-MS/MS analysis; type: ADME, organism-based, Muscle tissue; conditions: in vivo
[9] = Drug metabolism in BALB/c mouse liver at 5 mg/kg, iv after 8 hrs by LC-MS/MS analysis; type: ADME, organism-based; conditions: in vivo
[10] = Drug metabolism in BALB/c mouse kidney at 5 mg/kg, iv after 8 hrs by LC-MS/MS analysis; type: ADME, organism-based; conditions: in vivo
[11] = Drug metabolism in BALB/c mouse spleen at 5 mg/kg, iv after 8 hrs by LC-MS/MS analysis; type: ADME, organism-based; conditions: in vivo
[12] = Drug distribution in BALB/c mouse liver at 0.6 mg/kg, iv using compound labelled with cyanine-5 measured after 24 hrs by fluorescence based assay; type: ADME, organism-based; conditions: in vivo
[13] = Drug distribution in BALB/c mouse kidney at 0.6 mg/kg, iv using compound labelled with cyanine-5 measured after 24 hrs by fluorescence based assay; type: ADME, organism-based; conditions: in vivo
[14] = Drug distribution in BALB/c mouse spleen at 0.6 mg/kg, iv using compound labelled with cyanine-5 measured after 24 hrs by fluorescence based assay; type: ADME, organism-based; conditions: in vivo
[15] = Drug distribution in BALB/c mouse heart at 0.6 mg/kg, iv using compound labelled with cyanine-5 measured after 24 hrs by fluorescence based assay; type: ADME, organism-based; conditions: read-out: Drug uptake
[16] = Drug distribution in BALB/c mouse pancreas at 0.6 mg/kg, iv using compound labelled with cyanine-5 measured after 24 hrs by fluorescence based assay; type: ADME, organism-based; conditions: read-out: Drug uptake
[17] = Drug distribution in BALB/c mouse monocytes at 0.6 mg/kg, iv using compound labelled with cyanine-5 measured after 24 hrs by flow cytometry; type: ADME, organism-based, Monocyte; conditions: in vivo
[18] = Drug distribution in BALB/c mouse liver at […], ip using compound labelled with cyanine-5 measured after 24 hrs by fluorescence based assay; type: ADME, organism-based; conditions: in vivo, dose 2.4 mg/kg
[19] = Drug distribution in BALB/c mouse heart at […], ip using compound labelled with cyanine-5 measured after 24 hrs by fluorescence based assay; type: ADME, organism-based; conditions: dose 2.4 mg/kg, read-out: Drug uptake
[20] = Drug distribution in BALB/c mouse monocytes at […], ip using compound labelled with cyanine-5 measured after 24 hrs by flow cytometry; type: ADME, organism-based, Monocyte; conditions: in vivo, dose 2.4 mg/kg
[21] = Drug distribution in BALB/c mouse Non-T and B lymphocytes at […], ip using compound labelled with cyanine-5 measured after 24 hrs by flow cytometry; type: ADME, organism-based, Lymphocyte; conditions: in vivo, dose 2.4 mg/kg
[22] = Drug distribution in BALB/c mouse liver at […], sc using compound labelled with cyanine-5 measured after 24 hrs by fluorescence based assay; type: ADME, organism-based; conditions: in vivo, dose 2.4 mg/kg
[23] = Drug distribution in BALB/c mouse spleen at […], sc using compound labelled with cyanine-5 measured after 24 hrs by fluorescence based assay; type: ADME, organism-based; conditions: in vivo, dose 2.4 mg/kg
[24] = Drug distribution in BALB/c mouse pancreas at […], sc using compound labelled with cyanine-5 measured after 24 hrs by fluorescence based assay; type: ADME, organism-based; conditions: dose 2.4 mg/kg, read-out: Drug uptake
[25] = Drug distribution in BALB/c mouse plasma at […], sc using compound labelled with cyanine-5 measured after 24 hrs by fluorescence based assay; type: ADME, organism-based; conditions: in vivo, dose 2.4 mg/kg
[26] = Drug distribution in BALB/c mouse monocytes at […], sc using compound labelled with cyanine-5 measured after 24 hrs by flow cytometry; type: ADME, organism-based, Monocyte; conditions: in vivo, dose 2.4 mg/kg
[27] = Drug distribution in BALB/c mouse Non-T and B lymphocytes at […], sc using compound labelled with cyanine-5 measured after 24 hrs by flow cytometry; type: ADME, organism-based, Lymphocyte; conditions: in vivo, dose 2.4 mg/kg
Mus musculus [28] = test: Anti-inflammatory activity in BALB/c mouse model of LPS-induced ALI assessed as reduction in LPS-induced lung wet-to-dry ratios at 5 mg/kg, iv pre-treated 4 hrs before LPS stimulation for 16 hrs; type: functional, organism-based; conditions: time 20.0 hrs
Mus musculus [29] = test: Anti-inflammatory activity in BALB/c mouse model of LPS-induced ALI assessed as reduction in LPS-induced IL6 in BALF at 5 mg/kg, iv pre-treated 4 hrs before LPS stimulation for 16 hrs; type: functional, organism-based; conditions: time 20.0 hrs
Mus musculus [30] = test: Anti-inflammatory activity in BALB/c mouse model of LPS-induced ALI assessed as reduction in LPS-induced TNFalpha in BALF at 5 mg/kg, iv pre-treated 4 hrs before LPS stimulation for 16 hrs; type: functional, organism-based; conditions: time 20.0 hrs
Mus musculus [31] = test: Anti-inflammatory activity in BALB/c mouse model of LPS-induced ALI assessed as reduction in LPS-induced BALF protein levels at 3 mg/kg dosed via intranasal instillation pre-treated 2 hrs before LPS stimulation for 6 hrs and measured at 24 hrs; type: functional, organism-based
Mus musculus [32] = test: Anti-inflammatory activity in BALB/c mouse model of LPS-induced ALI assessed as reduction in LPS-induced lung wet-to-dry ratios at 3 mg/kg dosed via intranasal instillation pre-treated 2 hrs before LPS stimulation for 6 hrs; type: functional, organism-based; conditions: time 8.0 hrs
Mus musculus [33] = test: Anti-inflammatory activity in BALB/c mouse model of LPS-induced ALI assessed as reduction in LPS-induced IL6 level in BALF at 0.3 to 3 mg/kg dosed via intranasal instillation pre-treated 2 hrs before LPS stimulation for 6 hrs; type: functional
Mus musculus [34] = test: Anti-inflammatory activity in BALB/c mouse model of LPS-induced ALI assessed as reduction in LPS-induced TNFalpha in BALF at 0.3 to 3 mg/kg dosed via intranasal instillation pre-treated 2 hrs before LPS stimulation for 6 hrs; type: functional
[35] = dose mg/kg 0.3-3, time 8 hrs, read-out: MED

In the case of `CC[C@H](C)[C@H](NC(=O)[C@@H](NC(=O)c1ccnc(Cl)c1Cl)C(C)(C)C)C(=O)N[C@H](C(=O)N[C@H](C(=O)N[C@H](C(=O)N[C@@H](CCC(N)=O)C(=O)N[C@@H](Cc1c[nH]cn1)C(=O)N[C@H](CC(C)C)C(=O)N[C@@H](CO)C(=O)NCCOCCOCC(=O)N[C@@H](CCCCNC(=O)CC[C@@H]1NC(=O)[C@@H](CCCNC(=N)N)NC(=O)[C@H](CCCNC(=N)N)NC(=O)[C@@H](CCCNC(=N)N)NC(=O)[C@H](CCCNC(=N)N)NC(=O)[C@H](Cc2ccc3ccccc3c2)NC(=O)[C@@H](Cc2ccccc2)NC1=O)C(N)=O)[C@@H](C)O)[C@@H](C)CC)C(C)(C)O` (I: X1-[Tle]I[Val(3-OH)]ITQH[dL]S[AEEA]K-NH2 / II: cyclo([2Nal]R[dR]R[dR]E[dF]); amide I:11-II:6), the Stabilty [1] is reported as “Stable”, the Activity (HeLa) is reported as “Non-Toxic” and the inhibition (Macrophage [2]) is reported as “Dose-dependent effect”. The inhibition (Macrophage [3]) was “Dose-dependent effect”, the inhibition (Homo sapiens) was “inactive” and the fold change (FC) (Macrophage [4]) was 10. The Stability [5] was “Stable”, the Stabilty [6] was “Stable” and the metabolised at 1 h, 100 µM [7] was at most 25%. For the same compound, the Drug uptake [8] was “Not Active”, the Drug metabolism [9] was “Metabolite_Detected” and the Drug metabolism [10] was “Metabolite_Detected”. The Drug metabolism [11] was “Metabolite_Detected”, the Drug uptake [12] was “Active” and the Drug uptake [13] was “Active”. The Drug uptake [14] was “Active”, the concentration at 24 h [15] was over 0.05 µM and the concentration at 24 h [16] was over 0.05 µM. For the same compound, the Drug uptake [17] was “Active”, the Drug uptake [18] was “Active” and the concentration at 24 h [19] was over 0.05 µM. The Drug uptake [20] was “Active”, the Drug uptake [21] was “Active” and the Drug uptake [22] was “Active”. The Drug uptake [23] was “Active”, the concentration at 24 h [24] was over 0.05 µM and the Drug uptake [25] was “Not Active”. The Drug uptake [26] was “Active”, the Drug uptake [27] was “Active” and the Activity (Mus musculus [28]) was “Active”. For the same compound, the Activity (Mus musculus [29]) was “Active”, the Activity (Mus musculus [30]) was “Active” and the Activity (Mus musculus [31]) was “inactive”. The Activity (Mus musculus [32]) was “Active”, the Activity (Mus musculus [33]; dose mg/kg 0.3-3, time 8.0 hrs) was “Dose-dependent effect” and the minimal effective dose (Mus musculus [33]; [35]) was 1 mg/kg. The Activity (Mus musculus [34]; dose mg/kg 0.3-3, time 8.0 hrs) was “Dose-dependent effect” and the minimal effective dose (Mus musculus [34]; [35]) was 1 mg/kg.
